Source: patent US20260043031A1, “COMPOSITIONS AND METHODS FOR INHIBITING ADENYLATE CYCLASE 9 (AC9)” (INSTITUT DE CARDIOLOGIE DE MONTRÉAL, priority 2022, published 2026)

What was measured:
Type in all cases: cell-based, human
HepG2 cells [1] = experiment: Cellular cholesterol efflux toward apo A-I
Protocol: (§1) HepG2 (hepatocellular carcinoma) cells were growth in Eagle's minimum essential medium (EMEM). The medium was supplemented with 10% FBS, 100 units/ml penicillin, and 100 μg/ml streptomycin. Cells were cultured in 5% CO2 at 37° C. and were harvested once a week with trypsin-EDTA. For experiments, cells were trypsinized, seeded, and cultured at least for 3 days prior to the assays.
(§2) HepG2 cells were transfected with ADCY9, SREBP2, LDLr or scramble siRNA in the presence of Lipofectamine RNAiMAX in Opti-MEM for 72 h unless otherwise stated.
Cells were labeled in EMEM containing 2 μCi/ml [1,2-^3H]cholesterol plus 1% FBS for 24 h at 37° C. Then, cells were equilibrated with EMEM containing 0.2% BSA for 18 h at 37° C. with or without H89 or GSK-2033. An efflux assay was performed in the absence or presence of 10 μg/ml of apo A-I. At the end of the incubation, the medium was harvested and cells were solubilized. Medium and cells were counted for radioactivity in a […]. The percentage of efflux was calculated by subtracting the radioactive counts in the medium in the absence of cholesterol acceptors from the radioactive counts in the presence of acceptor and then dividing by the sum of the radioactive counts in the medium plus the cell fraction.

LDLr = experiment: Western blot of LDLr protein in HepG2 cells; details: for LDLr protein expression in human HepG2 cells (% of siScramble): HepG2 transfected with siRNA, Western blot, actin loading control, n=8
Protocol: as §1, §2
(§3) For Western blotting, cells were washed with cold PBS and then scraped and lysed in ice-cold lysis buffer (50 mM Tris, pH 7.5, 150 mM NaCl, 1% Triton X-100, 0.1% SDS, 0.5% sodium deoxycholate, 1 mM PMSF, and protease inhibitor cocktail). Lysate was microcentrifugated for 20 min at 4° C. and supernatant was assessed for cell proteins. Proteins ([…]) were separated by sodium dodecyl sulfate-polyacrylamide gel electrophoresis (SDS-PAGE) followed by Western blotting to PVDF membrane.
Protein expression is represented as a percentage of the control, siScramble. n=8. Paired t-test: *=p≤0.05; **=p≤0.01; and ***=p≤0.001, relative to siScramble.

ABCA1 = experiment: Western blot of ABCA1 protein in HepG2 cells; details: HepG2, siAC9 plus 2 μM H89, 24 h
Protocol: as §1, §2, §3

HepG2 cells [2] = experiment: 3H-CE-LDL cell association assay; details: HepG2, siAC9 plus 2 μM H89, 24 h
Protocol: as §1, §2

AC9 = experiment: Western blot of AC9 protein after siRNA transfection of HepG2 cells; details: HepG2 transfected with siRNA, actin loading control, n=8
Protocol: as §1, §2, §3
Results were obtained by Western blotting and actin was used as a loading control. Protein expression is represented as a percentage of the control, siScramble. n=8. Paired t-test: *=p≤0.05; **=p≤0.01; and ***=p≤0.001, relative to siScramble.

[3] = HepG2, siAC9 plus 2 μM H89, 24 h

| Compound | AC9 protein expression in human HepG2 cells (% of siScramble) (AC9) | LDLr protein expression in human HepG2 cells (% of siScramble) (LDLr) | other results |
| --- | --- | --- | --- |
| Cc1cc(C)c(S(=O)(=O)N(Cc2ccc(-c3cccc(S(C)(=O)=O)c3)cc2)Cc2ccc(C(F)(F)F)o2)c(C)c1 [GSK-2033] | – | – | ABCA1-mediated cholesterol efflux, effect on siAC9-mediated increase (HepG2 cells [1]; HepG2, siAC9 plus 5 μM GSK-2033, 24 h): significantly reduce |
| O=S(=O)(NCCNC/C=C/c1ccc(Br)cc1)c1cccc2cnccc12 [H89] | – | – | LDLr protein expression, effect on siAC9-mediated increase (LDLr; [3]): reversed; ABCA1 protein expression, effect on siAC9-mediated increase (ABCA1): reversed; 3H-CE-LDL association in siAC9-treated cells (HepG2 cells [2]): reduction; cholesterol efflux in siAC9-treated cells (HepG2 cells [1]; [3]): not |
| CC(C)c1c(C(=O)Nc2ccccc2)c(-c2ccccc2)c(-c2ccc(F)cc2)n1CC[C@@H](O)C[C@@H](O)CC(=O)O [atorvastatin, reference compound] | – | – | LDLr protein expression, combined treatment (LDLr; HepG2, 300 μM exogenous cAMP plus 5 μM atorvastatin): increased |
| ADCY9-1: siRNA, sense SEQ ID NO: 3 CGAAAUGGAAGAUGGGAAAUU, antisense SEQ ID NO: 4 UUUCCCAUCUUCCAUUUCGUU; targets ADCY9 mRNA Exon 2 (listed as RNA, chemistry not fully specified) | 24% *** | 131% ** | – |
| ADCY9-2: siRNA, sense SEQ ID NO: 5 CGAAACAGGAAUAGAAGAAUU, antisense SEQ ID NO: 6 UUCUUCUAUUCCUGUUUCGUU; targets ADCY9 mRNA Exon 10 (listed as RNA, chemistry not fully specified) | 16% *** | 122% ** | – |
| ADCY9-3: siRNA, sense SEQ ID NO: 7 AGGAAGAGGUCAUAAAGAAUU, antisense SEQ ID NO: 8 UUCUUUAUGACCUCUUCCUUU; targets ADCY9 mRNA Exon 5-6 (listed as RNA, chemistry not fully specified) | 17% *** | 126% * | – |
| ADCY9-4: siRNA, sense SEQ ID NO: 9 GCACCAAGAUCCAGAGCAUUU, antisense SEQ ID NO: 10 AUGCUCUGGAUCUUGGUGCUU; targets ADCY9 mRNA Exon 10 (listed as RNA, chemistry not fully specified) | 15% *** | 150% ** | – |
| ADCY9-ID1039: siRNA, sense SEQ ID NO: 1 CCUGAUGAAAGAUUACUUUTT, antisense SEQ ID NO: 2 AAAGUAAUCUUUCAUCAGGCT; targets ADCY9 mRNA Exon 5 (chemistry not fully specified) | 15% *** | 123% * | – |
